Experimental data from patent publication US9861625B2, “Methods and compositions for treating cancer through inhibition of PI3K” (Duke University, priority 2014, dated 2018).

Key:
Format in all cases: cell-based
[1] = system: Sixty cell lines representing blood cancer histologies; assay: Sensitivity to PI3K inhibition in sixty cancer cell lines (MTT); conditions: BKM120 and BEZ235 in all 60 cell lines; BGT226 in 31 cell lines; read-out: observed IC50s, range over the cell lines
Source text: (§1) A total of 60 cell lines representative of different cancer types were obtained from the ATCC and grown and maintained in accordance with the provided guidelines. The cell lines represented the following distinct histologies: mantle cell lymphoma (5 lines: JVM13, Rec1, Mino, JVM2, Jeko); germinal center B-cell derived (“GCB”) DLBCL (19 lines: Farage, BJAB, Ly1, Ly2, Ly7, Ly8, Ly19, HBL2, HT, Karpas422, Pfeiffer, RCK8, RL, Sci-1, Ski, SUDHL4, SUDHL7, Toledo, WSU-NHL); primary mediastinal B-cell lymphoma (“PMBL”) (3 lines: K1106, MEDB1, U2940); Burkitt lymphoma (11 lines: Daudi, CA46, EB1, EB2, EB3, Jijoye, Raji, Ramos, Namwala, BL2, BL41); Hodgkin lymphoma (3 lines: RMPI6666, L1236, L428); activated B-cell derived (“ABC”) DLBCL (6 lines: Ly3, HBL1, TMD8, Ly10, Riva, U2932); multiple myeloma (6 lines: U266, SKMM1, RPMI8226, KMS12, IM9, H929); acute myelogenous leukemia (“AML”) (2 lines: U937, KG1); acute lymphoblastic leukemia (“ALL”) (2 lines: Reh, SR); and T-cell lymphoma (3 lines: Molt4, RPMI8402, Jurkat). The cell lines were tested within six months after resuscitation.
The 3-(4,5-dimethylthiazol-2-yl)-2,5-diphenyltetrazolium bromide (MTT) cell viability assay was used to determine cell viability in response to drug treatment. Five replicates per concentration tested were carried out in serial dilutions with a total of ten concentrations with a 50% reduction in drug concentration per dilution for each plate. A total of 15 μl of MTT reagent was added to each drug-treated well and incubated for three hours in 37° C. Detergent was added to each drug-treated well and incubated overnight at room temperature without exposure to light. Absorbance was measured at 570 nm using a plate reader from Tecan Group. The IC50 concentration was determined using the publicly available ED50 plus v1.0 software program. […]

[2] = system: PI3K pathway (p-AKT, p-S6, p-GSKalpha, p-GSKbeta) in BJAB DLBCL cells; assay: Confirmation of pathway downregulation (Western blot) in BJAB; conditions: for inhibition of the PI3K pathway: BJAB, time-course and dose-escalation experiments
Description: RIPA lysis buffer (1×PBS, 1% NP-40, 0.5% sodium deoxycholate, 0.1% SDS, 10 mmol/L sodium orthovanadate) was added to 750,000 cells and incubate on ice for 30 minutes. The mixture was spun down, and the supernatant was transferred to a new tube as the whole-cell extract. A total of 20 μg cell lysate was separated on a 4% to 18% Tris-Bis NuPAGE gel (Invitrogen) and transferred using the iBlot transfer device (Invitrogen) program 3 for seven minutes. The blots were probed with a 1:100 p-AKT, 1:1000 total AKT, 1:100p-GSK3alpha, 1:100 p-GSK3beta, or 1:100 p-s6 (Cell Signaling), or 1:5000 goat anti-β-actin (SC-47778, Santa Cruz Biotech) for one hour at room temperature. The antibodies were detected by the use of 1:10,000 goat anti-mouse-HRP conjugated antibodies (Santa Cruz Biotech). Western Blotting Luminol Reagent (Santa Cruz Biotech) was used to visualize the bands corresponding to each antibody.
One million BJAB DLBCL cells were treated with increasing doses of BEZ235, and, after six hours, the cells were analyzed for a dose-dependent effect at 15, 30, 60, 125, 250, and 500 nmol/L concentrations. Cell count and viability were measured for each concentration. […] Western blot analyses were performed to assess phosphorylation of AKT, GSK3alpha, GSK3beta, and S6.
Inhibition of the PI3K pathway by the three PI3K inhibitors was confirmed through separate time-course and dose-escalation experiments, as well as by measuring the expression of key downstream members of the pathway. The drugs were tested in the BJAB DLBCL for their effects on p-AKT, p-S6, p-GSKalpha, and p-GSKbeta. […] An associated decrease in cell viability was ruled out by quantifying the proportion of viable cells at each time point using trypan blue staining.

MEDB1 = assay: MTT cell viability assay; conditions: MEDB1, PMBL, RPMI 10% FBS
Source text: as §1
(§2) The 3-(4,5-dimethylthiazol-2-yl)-2,5-diphenyltetrazolium bromide (MTT) cell viability assay was used to determine cell viability in response to drug treatment. Five replicates per concentration tested were carried out in serial dilutions with a total of ten concentrations with a 50% reduction in drug concentration per dilution for each plate. A total of 15 μl of MTT reagent was added to each drug-treated well and incubated for three hours in 37° C. Detergent was added to each drug-treated well and incubated overnight at room temperature without exposure to light. Absorbance was measured at 570 nm using a plate reader from Tecan Group. The IC50 concentration was determined using the publicly available ED50 plus v1.0 software program.

H929 = assay: MTT cell viability assay; conditions: Homo sapiens, NCI-H929; H929, Multiple Myeloma, RPMI 10% FBS
Source text: as §1, §2

Riva = assay: MTT cell viability assay; conditions: ABC DLBCL, RPMI 10% FBS
Source text: as §1, §2

LY10 = assay: MTT cell viability assay; conditions: LY10, ABC DLBCL, OCI
Source text: as §1, §2

HBL2 = assay: MTT cell viability assay; conditions: HBL2, GCB DLBCL, RPMI 10% FBS
Source text: as §1, §2

Ski = assay: MTT cell viability assay; conditions: GCB DLBCL, RPMI 10% FBS
Source text: as §1, §2

RMPI6666 = assay: MTT cell viability assay; conditions: RMPI6666, Hodgkin Lymphoma, RPMI 10% FBS
Source text: as §1, §2

SUDHL7 = assay: MTT cell viability assay; conditions: SUDHL7, GCB DLBCL, RPMI 15% FBS
Source text: as §1, §2

Row | IC50 [1] [nM] | IC50 (H929) [nM] | IC50 (SUDHL7) [nM] | Structure (SMILES) | inhibition of the PI3K pathway [2] | IC50 (MEDB1) [nM] | IC50 (Riva) [nM] | IC50 (LY10) [nM] | IC50 (HBL2) [nM] | IC50 (Ski) [nM] | IC50 (RMPI6666) [nM] | down regulation of PI3K targets, time course ([2]; 30 nmol/L BEZ235, three and six hours after treatment, total AKT and actin unchanged)
1 | 3 to 200 | 3.6 |  | COc1ccc(-c2ccc3ncc4c(c3c2)n(-c2ccc(N3CCNCC3)c(C(F)(F)F)c2)c(=O)n4C)cn1 [BGT226] | directly inhibit the PI3K pathway | 49.7 |  |  |  |  |  | 
2 | 200 to 7800 | 1200 | 233 | Nc1cc(C(F)(F)F)c(-c2cc(N3CCOCC3)nc(N3CCOCC3)n2)cn1 [BKM120] | directly inhibit the PI3K pathway | 7790 | 476 | 1520 | 1420 | 236 | 3300 | 
3 | 10 to 9000 | 113 | 22.2 | Cn1c(=O)n(-c2ccc(C(C)(C)C#N)cc2)c2c3cc(-c4cnc5ccccc5c4)ccc3ncc21 [BEZ235] | directly inhibit the PI3K pathway | 1830 | 517 | 9390 | 1560 | 25 | 52 | time-dependent down regulation
